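Each compound was tested at five concentrations against cells in 96-well plates for 48 hours. The concentration for 50% growth inhibition is given as GI50.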 Active and inactive are the calls of the source. Rule as the data show it: active = GI50 up to about 1.1 µM and inactive = higher.
Key:
Assay in all cases: NCI-60 cell line screen, 48 h
[1] = test system: SNB-75
[2] = test system: NCI/ADR-RES
[3] = test system: 786-0
[4] = test system: UO-31
[5] = test system: SNB-19
[6] = test system: LOX IMVI
[7] = test system: HCT-15
[8] = test system: SK-MEL-5
[9] = test system: UACC-62
[10] = test system: NCI-H522
[11] = test system: TK-10
[12] = test system: NCI-H460
[13] = test system: HCT-116
[14] = test system: SK-OV-3
[15] = test system: MCF7
[16] = test system: BT-549
[17] = test system: M14
[18] = test system: NCI-H226
[19] = test system: HOP-62
[20] = test system: RXF 393
[21] = test system: ACHN
[22] = test system: OVCAR-5
[23] = test system: UACC-257
[24] = test system: OVCAR-8
[25] = test system: A549
[26] = test system: COLO 205
[27] = test system: DU-145
[28] = test system: A498
[29] = test system: EKVX
[30] = test system: PC-3
[31] = test system: SF-295
[32] = test system: NCI-H23
[33] = test system: T47D
[34] = test system: OVCAR-3
[35] = test system: SK-MEL-28
[36] = test system: RPMI-8226
[37] = test system: HOP-92
[38] = test system: Hs-578T
[39] = test system: SN12C
[40] = test system: SF-539
[41] = test system: MOLT-4
[42] = test system: MDA-MB-231
[43] = test system: SW-620
[44] = test system: KM12
[45] = test system: K562
[46] = test system: MDA-N
[47] = test system: SR
[48] = test system: CCRF-CEM
[49] = test system: U-251
[50] = test system: HL-60
[51] = test system: HT-29
[52] = test system: CAKI-1
[53] = test system: SF-268
[54] = test system: OVCAR-4
[55] = test system: Malme-3M
[56] = test system: IGROV-1
[57] = test system: HCC 2998
[58] = test system: MDA-MB-435
[59] = test system: SK-MEL-2

CCN1C/C(=C\c2ccc(Cl)cc2)C2=NN(c3ccccc3)C(c3ccc(Cl)cc3)C2C1 (stereo not drawn)
GI50 [1]: > 100 µM (inactive) | GI50 [2]: > 100 µM (inactive) | GI50 [3]: > 100 µM (inactive) | GI50 [4]: > 100 µM (inactive) | GI50 [5]: > 100 µM (inactive) | GI50 [6]: > 100 µM (inactive) | GI50 [7]: > 100 µM | GI50 [8]: > 100 µM (inactive) | GI50 [9]: > 100 µM (inactive) | GI50 [10]: > 100 µM (inactive) | GI50 [11]: > 100 µM (inactive) | GI50 [12]: > 100 µM (inactive) | GI50 [13]: > 100 µM (inactive) | GI50 [14]: > 100 µM (inactive) | GI50 [15]: 53.1 µM (inactive) | GI50 [16]: > 100 µM (inactive) | GI50 [17]: > 100 µM (inactive) | GI50 [18]: > 100 µM (inactive) | GI50 [19]: > 100 µM (inactive) | GI50 [20]: > 100 µM (inactive) | GI50 [21]: > 100 µM (inactive) | GI50 [22]: > 100 µM (inactive) | GI50 [23]: > 100 µM (inactive) | GI50 [24]: > 100 µM (inactive) | GI50 [25]: > 100 µM (inactive) | GI50 [26]: > 100 µM (inactive) | GI50 [27]: > 100 µM (inactive) | GI50 [28]: > 100 µM (inactive) | GI50 [29]: > 100 µM (inactive) | GI50 [30]: > 100 µM (inactive) | GI50 [31]: > 100 µM (inactive) | GI50 [32]: > 100 µM (inactive)

CCCCCCCCCCCCCCCCCC(=O)OCC(COC1OC(COP(=O)(O)O)C(O)C(O)C1O)OC(=O)CCCCCCCCCCCCCCCCC (stereo not drawn)
GI50 [33]: 11.9 µM (inactive) | GI50 [1]: 4.63 µM (inactive) | GI50 [2]: 9.33 µM (inactive) | GI50 [34]: 8.87 µM (inactive) | GI50 [3]: 7.94 µM (inactive) | GI50 [35]: 9.98 µM (inactive) | GI50 [36]: 13.6 µM (inactive) | GI50 [5]: 8 µM (inactive) | GI50 [6]: 9.06 µM (inactive) | GI50 [37]: 4.14 µM (inactive) | GI50 [38]: 6.14 µM (inactive) | GI50 [7]: 7.52 µM | GI50 [39]: 7 µM (inactive) | GI50 [40]: 9.44 µM (inactive) | GI50 [41]: 7.5 µM (inactive) | GI50 [42]: 3.04 µM (inactive) | GI50 [8]: 9.1 µM (inactive) | GI50 [43]: 10.3 µM (inactive) | GI50 [44]: 6.27 µM (inactive) | GI50 [45]: 9.89 µM (inactive) | GI50 [46]: 10.7 µM (inactive) | GI50 [47]: 0.0227 µM (active) | GI50 [9]: 8.57 µM (inactive) | GI50 [11]: 10.4 µM (inactive) | GI50 [12]: 11.7 µM (inactive) | GI50 [13]: 8.83 µM (inactive) | GI50 [14]: 8 µM (inactive) | GI50 [48]: 4.95 µM (inactive) | GI50 [49]: 6.71 µM (inactive) | GI50 [50]: 12.4 µM (inactive) | GI50 [15]: 8.38 µM (inactive) | GI50 [51]: 5.32 µM (inactive) | GI50 [17]: 9.14 µM (inactive) | GI50 [18]: 4.21 µM (inactive) | GI50 [19]: 8.26 µM (inactive) | GI50 [20]: 8.95 µM (inactive) | GI50 [52]: 9.73 µM (inactive) | GI50 [21]: 6.41 µM (inactive) | GI50 [22]: 5.28 µM (inactive) | GI50 [23]: 8.61 µM (inactive) | GI50 [24]: 7.35 µM (inactive) | GI50 [25]: 7.46 µM (inactive) | GI50 [53]: 8.97 µM (inactive) | GI50 [54]: 7.41 µM (inactive) | GI50 [55]: 7.52 µM (inactive) | GI50 [26]: 9.59 µM (inactive) | GI50 [56]: 4.02 µM (inactive) | GI50 [27]: 9.62 µM (inactive) | GI50 [28]: 6.03 µM (inactive) | GI50 [29]: 7.74 µM (inactive) | GI50 [30]: 7.62 µM (inactive) | GI50 [31]: 4.02 µM (inactive) | GI50 [57]: 7.29 µM (inactive) | GI50 [58]: 9.71 µM (inactive) | GI50 [32]: 7.78 µM (inactive)

COc1cc(CNC(=O)CCCCCCCC/C=C/Br)ccc1O
GI50 [33]: > 10 µM (inactive) | GI50 [1]: > 10 µM (inactive) | GI50 [2]: > 10 µM (inactive) | GI50 [34]: > 10 µM (inactive) | GI50 [3]: > 10 µM (inactive) | GI50 [35]: > 10 µM (inactive) | GI50 [36]: > 10 µM (inactive) | GI50 [4]: > 10 µM (inactive) | GI50 [5]: > 10 µM (inactive) | GI50 [6]: > 10 µM (inactive) | GI50 [37]: > 10 µM (inactive) | GI50 [38]: > 10 µM (inactive) | GI50 [7]: > 10 µM | GI50 [39]: > 10 µM (inactive) | GI50 [40]: > 10 µM (inactive) | GI50 [41]: > 10 µM (inactive) | GI50 [42]: > 10 µM (inactive) | GI50 [8]: > 10 µM (inactive) | GI50 [43]: > 10 µM (inactive) | GI50 [44]: > 10 µM (inactive) | GI50 [45]: > 10 µM (inactive) | GI50 [46]: > 10 µM (inactive) | GI50 [47]: > 10 µM (inactive) | GI50 [9]: > 10 µM (inactive) | GI50 [10]: > 10 µM (inactive) | GI50 [11]: > 10 µM (inactive) | GI50 [12]: > 10 µM (inactive) | GI50 [13]: > 10 µM (inactive) | GI50 [14]: > 10 µM (inactive) | GI50 [48]: > 10 µM (inactive) | GI50 [49]: > 10 µM (inactive) | GI50 [50]: > 10 µM (inactive) | GI50 [15]: > 10 µM (inactive) | GI50 [51]: > 10 µM (inactive) | GI50 [17]: > 10 µM (inactive) | GI50 [18]: > 10 µM (inactive) | GI50 [19]: > 10 µM (inactive) | GI50 [20]: > 10 µM (inactive) | GI50 [52]: > 10 µM (inactive) | GI50 [21]: > 10 µM (inactive) | GI50 [23]: > 10 µM (inactive) | GI50 [24]: > 10 µM (inactive) | GI50 [25]: > 10 µM (inactive) | GI50 [53]: > 10 µM (inactive) | GI50 [54]: > 10 µM (inactive) | GI50 [55]: > 10 µM (inactive) | GI50 [26]: > 10 µM (inactive) | GI50 [56]: > 10 µM (inactive) | GI50 [27]: > 10 µM (inactive) | GI50 [28]: > 10 µM (inactive) | GI50 [29]: > 10 µM (inactive) | GI50 [30]: > 10 µM (inactive) | GI50 [31]: > 10 µM (inactive) | GI50 [57]: > 10 µM (inactive) | GI50 [58]: > 10 µM (inactive) | GI50 [32]: > 10 µM (inactive) | GI50 [59]: > 10 µM (inactive)

O=c1c2ncn(C3CCCO3)c2n(-c2ccccc2)c(=S)n1-c1ccccc1 (stereo not drawn)
GI50 [33]: > 100 µM (inactive) | GI50 [1]: 97.7 µM (inactive) | GI50 [2]: > 100 µM (inactive) | GI50 [34]: > 100 µM (inactive) | GI50 [3]: > 100 µM (inactive) | GI50 [35]: > 100 µM (inactive) | GI50 [36]: > 100 µM (inactive) | GI50 [4]: > 100 µM (inactive) | GI50 [6]: > 100 µM (inactive) | GI50 [7]: > 100 µM | GI50 [39]: > 100 µM (inactive) | GI50 [40]: > 100 µM (inactive) | GI50 [41]: > 100 µM (inactive) | GI50 [42]: > 100 µM (inactive) | GI50 [8]: > 100 µM (inactive) | GI50 [43]: > 100 µM (inactive) | GI50 [44]: > 100 µM (inactive) | GI50 [45]: > 100 µM (inactive) | GI50 [47]: > 100 µM (inactive) | GI50 [9]: > 100 µM (inactive) | GI50 [10]: > 100 µM (inactive) | GI50 [11]: > 100 µM (inactive) | GI50 [12]: > 100 µM (inactive) | GI50 [13]: > 100 µM (inactive) | GI50 [14]: > 100 µM (inactive) | GI50 [48]: > 100 µM (inactive) | GI50 [49]: > 100 µM (inactive) | GI50 [50]: > 100 µM (inactive) | GI50 [15]: > 100 µM (inactive) | GI50 [16]: > 100 µM (inactive) | GI50 [51]: > 100 µM (inactive) | GI50 [17]: > 100 µM (inactive) | GI50 [18]: > 100 µM (inactive) | GI50 [19]: > 100 µM (inactive) | GI50 [20]: > 100 µM (inactive) | GI50 [52]: > 100 µM (inactive) | GI50 [21]: > 100 µM (inactive) | GI50 [22]: > 100 µM (inactive) | GI50 [23]: > 100 µM (inactive) | GI50 [24]: > 100 µM (inactive) | GI50 [25]: > 100 µM (inactive) | GI50 [53]: > 100 µM (inactive) | GI50 [54]: > 100 µM (inactive) | GI50 [26]: > 100 µM (inactive) | GI50 [56]: > 100 µM (inactive) | GI50 [27]: > 100 µM (inactive) | GI50 [28]: > 100 µM (inactive) | GI50 [29]: > 100 µM (inactive) | GI50 [30]: > 100 µM (inactive) | GI50 [31]: > 100 µM (inactive) | GI50 [57]: > 100 µM (inactive) | GI50 [58]: > 100 µM (inactive) | GI50 [32]: > 100 µM (inactive) | GI50 [59]: > 100 µM (inactive)

Source: ChEMBL document CHEMBL1201862, “PubChem BioAssay data set” (2004)
